Test results published in patent US10287267B2, “Isoquinolin-3-yl carboxamides and preparation and use thereof” (Samumed, LLC, priority 2016, dated 2019).

Legend:
[1] = system: SW480 colon carcinoma cells; test: Cell viability assay (CellTiter-Glo); assay type: cell-based, human; settings: Homo sapiens; for EC50: 96 h, SW480 cells, CellTiter-Glo, four days incubation; for inhibition at 10 µM: SW480, read-out: percent inhibition at 10 μM
[2] = system: Wnt pathway (Sp5-Luc reporter, TCF/LEF binding sites) in SW480 colon carcinoma cells; test: Screening assay for Wnt activity: Sp5-Luc reporter gene assay; assay type: cell-based, human; settings: Homo sapiens; for EC50: Sp5-Luc reporter, SW480 cells, 36 to 48 hours; for inhibition at 10 µM: SW480, read-out: percent inhibition at 10 μM;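 as to all read-outs here: firefly luciferase luminescence read in stably transduced SW480 cells carrying the Sp5 promoter reporter with eight TCF/LEF sites, compounds given in 0.1% DMSO final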
Protocol: The screening assay for Wnt activity is described as follows.
Following incubation, 15 μl of BriteLite Plus luminescence reagent (Perkin Elmer) was added to each well of the 384-well assay plates. The plates were placed on an orbital shaker for 2 min and then luminescence was quantified using the Envision (Perkin Elmer) plate reader.

[3] = system: α-smooth muscle actin (αSMA) positive LL29 cells; test: Inhibition of fibrotic process: αSMA in TGF-β1 treated primary human fibroblasts from IPF patients; assay type: cell-based; settings: Homo sapiens, Fibroblast; for EC50: 96 h, Table 8, LL29 fibroblasts from IPF patients, TGF-β1 20 ng/mL, 4 days, dose-response 10 μM to 0.94 nM; for inhibition at 10 µM: read-out: percent value in parentheses beside EC50 >10 μM;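 as to all read-outs here: controls were TGF-β1 stimulated wells with DMSO vehicle (positive) and cells given DMSO alone (negative), cultured in F12 medium with 1% fetal bovine serum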
[4] = system: Tau phosphorylation at Ser396 (pSer396); test: Tau phosphorylation assay (pSer396 ELISA / western blot) in SH-SY5Y cells; assay type: cell-based, human; settings: Homo sapiens; SH-SY5Y cells, overnight (16-18 h) exposure; read-out: pSer396 Tau EC50;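 also: EC50 for reduction of Tau pSer396 in lysed cells, measured by colorimetric ELISA or chemiluminescent western blot, both using the same pSer396 antibody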
[5] = molecular target: recombinant DYRK1A kinase (Homo sapiens (Human), UniProt Q13627); test: DYRK1A kinase assay (Ser/Thr 18 peptide Z-lyte FRET); assay type: biochemical; settings: 30 μM ATP, 1 h room temperature;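 also: Read-out is the coumarin to fluorescein emission ratio, referenced to unphosphorylated (0%) and phosphorylated (100%) Ser/Thr 18 peptide controls, values from dose-response curves by non-linear regression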
IL-6 = IL-6 inhibition in LPS-stimulated human peripheral blood mononuclear cells (HTRF); assay type: cell-based; settings: Homo sapiens, PBMC; for EC50: Table 9, huPBMCs, LPS 50 ng/mL, 22 hours, dose-response starting from 10 μM; for inhibition at 10 µM: read-out: percent value in parentheses beside EC50 >10 μM;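 as to all read-outs here: IL-6 detected by HTRF with an XL665- and Cryptate-labelled anti-IL-6 antibody pair, samples run in duplicate, EC50 obtained from a four-parameter Levenberg-Marquardt curve fit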
Protocol: After 22 hour incubation, a mixture of anti-IL6 XL665 and anti-IL-6 Cryptate diluted in reconstitution buffer (Catalog #62IL6PEC, Cisbio Inc., Bedford, Mass.) was added to each well. […] All samples were processed in duplicate. […] EC50 was determined using software generated by Dotmatics Limited (Windhill Bishops Stortford Herts, UK) using the Levenberg-Marquardt 4 parameter fitting procedure with finite different gradients.

recombinant GSK3β kinase = recombinant GSK3β kinase (Homo sapiens (Human), UniProt P49841); test: GSK3β kinase assay (Ser/Thr 09 peptide Z-lyte FRET); assay type: biochemical; settings: 46 μM ATP, 1 h room temperature;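 also: kinase activity read as coumarin to fluorescein emission ratio, 11-point threefold dilutions from 10 µM to 0.0003 µM in duplicate, unphosphorylated and phosphorylated peptide as 0% and 100% controls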
Sequence of recombinant GSK3β kinase (P49841 whole entry): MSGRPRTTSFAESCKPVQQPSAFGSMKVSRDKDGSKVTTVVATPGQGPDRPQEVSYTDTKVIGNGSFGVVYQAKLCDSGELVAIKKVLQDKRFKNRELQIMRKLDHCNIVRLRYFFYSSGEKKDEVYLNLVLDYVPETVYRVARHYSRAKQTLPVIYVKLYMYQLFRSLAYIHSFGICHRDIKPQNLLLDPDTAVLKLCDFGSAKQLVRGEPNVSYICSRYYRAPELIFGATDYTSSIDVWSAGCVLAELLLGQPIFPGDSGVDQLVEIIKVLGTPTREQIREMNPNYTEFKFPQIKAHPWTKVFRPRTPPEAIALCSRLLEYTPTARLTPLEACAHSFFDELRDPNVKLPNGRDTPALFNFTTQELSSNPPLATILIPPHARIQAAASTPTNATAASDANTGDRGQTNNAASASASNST

| Compound | EC50 [1] | inhibition at 10 µM [1] | EC50 [2] | EC50 [3] | EC50 [4] | EC50 [5] | EC50 (IL-6) | EC50 (recombinant GSK3β kinase) | inhibition at 10 µM [2] | inhibition at 10 µM [3] | inhibition at 10 µM (IL-6) |
| --- | --- | --- | --- | --- | --- | --- | --- | --- | --- | --- | --- |
| C[C@@H]1COCCN1CC(=O)Nc1cc2cc(-c3cnn(C)c3)ccc2cn1 [Compound 342, (R)—N-(6-(1-Methyl-1H-pyrazol-4-yl)isoquinolin-3-yl)-2-(3-methylmorpholino)acetamide] | > 10000 nM | 40% | 7220 nM | 948 nM | 3600 nM | 6.5 nM | 4170 nM | 137 nM | – | – | – |
| Cn1cc(-c2ccc3cnc(NC(=O)C4CCN(CC(=O)O)CC4)cc3c2)cn1 [Compound 1011, 2-(4-((6-(1-Methyl-1H-pyrazol-4-yl)isoquinolin-3-yl)carbamoyl)piperidin-1-yl)acetic acid] | > 10000 nM | 25% | > 10000 nM | > 10000 nM | > 10000 nM | 2.6 nM | > 10000 nM | 30 nM | 25% | 15.9% | 15.3% |
| O=C(CN1CCCC1)Nc1cc2cc(-c3cnn4c3CN(CCF)CC4)ccc2cn1 [Compound 999, N-(6-(5-(2-Fluoroethyl)-4,5,6,7-tetrahydropyrazolo[1,5-a]pyrazin-3-yl)isoquinolin-3-yl)-2-(pyrrolidin-1-yl)acetamide] | 7510 nM | – | 3100 nM | 779 nM | 659 nM | 20.9 nM | > 10000 nM | 86 nM | – | – | 30.3% |
| Cn1cc(-c2ccc3cnc(NC(=O)C4CCN(Cc5cnccn5)CC4)cc3c2)cn1 [Compound 1004, N-(6-(1-Methyl-1H-pyrazol-4-yl)isoquinolin-3-yl)-1-(pyrazin-2-ylmethyl)piperidine-4-carboxamide] | 678 nM | – | 618 nM | 5040 nM | 667 nM | 2 nM | 1180 nM | 37 nM | – | – | – |
| Cn1cc(-c2ccc3cnc(NC(=O)C4CC4)c(Cl)c3c2)cn1 [Compound 364, N-(4-Chloro-6-(1-methyl-1H-pyrazol-4-yl)isoquinolin-3-yl) cyclopropanecarboxamide] | 5600 nM | – | > 10000 nM | > 10000 nM | > 10000 nM | 840 nM | > 10000 nM | 3120 nM | 24.1% | 15% | 5.8% |
| O=C(Nc1cc2cc(-c3cnc4n3CCNC4)ccc2cn1)[C@@H]1CCCNC1 [Compound 988, (R)—N-(6-(5,6,7,8-Tetrahydroimidazo[1,2-a]pyrazin-3-yl)isoquinolin-3-yl) piperidine-3-carboxamide] | > 10000 nM | 18% | > 10000 nM | > 10000 nM | > 10000 nM | 24.9 nM | > 10000 nM | 1090 nM | 11.1% | 46.5% | 8.8% |
| Cn1cc(-c2ccc3cnc(NC(=O)CN4C[C@@H]5C[C@H]4CO5)cc3c2)cn1 [Compound 345, 2-((1S,4S)-2-Oxa-5-azabicyclo[2.2.1]heptan-5-yl)-N-(6-(1-methyl-1H-pyrazol-4-yl)isoquinolin-3-yl)acetamide] | 3080 nM | – | 2120 nM | > 10000 nM | 774 nM | 4 nM | 4170 nM | 26 nM | – | 38% | – |
| Cn1ncc(-c2ccc3cnc(NC(=O)C4CCC(F)(F)CC4)cc3c2)c1CN1CCC1 [Compound 298, N-(6-(5-(Azetidin-1-ylmethyl)-1-methyl-1H-pyrazol-4-yl)isoquinolin-3-yl)-4,4-difluorocyclohexane-1-carboxamide] | 2380 nM | – | 3230 nM | 1340 nM | 1390 nM | 13.5 nM | 5530 nM | 125 nM | – | – | – |
| Cn1cc(-c2cc3cc(NC(=O)C4CCNCC4)ncc3cc2Cl)cn1 [Compound 1013, N-(7-Chloro-6-(1-methyl-1H-pyrazol-4-yl)isoquinolin-3-yl)piperidine-4-carboxamide] | 5500 nM | – | > 10000 nM | 2440 nM | 4200 nM | 17.1 nM | 6820 nM | 1430 nM | 42.9% | – | – |
| CO[C@H]1CC[C@@H](C(=O)Nc2cc3cc(-c4nnc(C)s4)ccc3cn2)CC1 [Compound 1001, cis-4-Methoxy-N-(6-(5-methyl-1,3,4-thiadiazol-2-yl)isoquinolin-3-yl) cyclohexane-1-carboxamide] | 677 nM | – | 593 nM | 65 nM | 3300 nM | 7.3 nM | > 10000 nM | 9 nM | – | – | – |
| CO[C@H]1CC[C@H](C(=O)Nc2cc3cc(-c4cnn(C)c4CN4CCCCC4)ccc3cn2)CC1 [Compound 795, trans-4-Methoxy-N-(6-(1-methyl-5-(piperidin-1-ylmethyl)-1H-pyrazol-4-yl)isoquinolin-3-yl)cyclohexane-1-carboxamide] | 806 nM | – | 471 nM | 227 nM | 401 nM | 2.4 nM | 1220 nM | 33 nM | – | – | – |
| Cn1cncc1-c1ccc2cnc(NC(=O)C3CCN(S(C)(=O)=O)CC3)cc2c1 [Compound 561, N-(6-(1-Methyl-1H-imidazol-5-yl)isoquinolin-3-yl)-1-(methylsulfonyl) piperidine-4-carboxamide] | 924 nM | – | 1460 nM | 600 nM | 395 nM | 1.5 nM | 634 nM | 12 nM | – | – | – |
| Cn1ncc(-c2ccc3cnc(NC(=O)C4CCN(C(=O)c5ccccc5)CC4)cc3c2)c1CN1CCCCC1 [Compound 831, 1-Benzoyl-N-(6-(1-methyl-5-(piperidin-1-ylmethyl)-1H-pyrazol-4-yl)isoquinolin-3-yl)piperidine-4-carboxamide] | 911 nM | – | 706 nM | 244 nM | 189 nM | 3.2 nM | 812 nM | 10 nM | – | – | – |
| O=C(Nc1cc2cc(-c3cnco3)ccc2cn1)C1CCN(CCC(F)(F)F)CC1 [Compound 308, N-(6-(Oxazol-5-yl)isoquinolin-3-yl)-1-(3,3,3-trifluoropropyl)piperidine-4-carboxamide] | > 10000 nM | 32% | 1810 nM | > 10000 nM | 361 nM | 2.4 nM | 9230 nM | 107 nM | – | 27.6% | – |
| [2H]C([2H])([2H])N1CCN(CC(=O)Nc2cc3cc(-c4cnn(C)c4)ccc3cn2)CC1 [Compound 965, N-(6-(1-Methyl-1H-pyrazol-4-yl)isoquinolin-3-yl)-2-(4-(methyl-d3)piperazin-1-yl)acetamide] | 8630 nM | – | 3180 nM | 1370 nM | 1000 nM | 10.6 nM | 3260 nM | 79 nM | – | – | – |
| CCN1CCC(F)(C(=O)Nc2cc3cc(-c4cn(C)nn4)ccc3cn2)CC1 [Compound 282, 1-Ethyl-4-fluoro-N-(6-(1-methyl-1H-1,2,3-triazol-4-yl)isoquinolin-3-yl) piperidine-4-carboxamide] | 6610 nM | – | > 10000 nM | 1940 nM | 973 nM | 11.5 nM | > 10000 nM | 134 nM | 49.3% | – | 2.4% |
